According to patent publication US12054502B2, “Multifunctional immunity-targeted micromolecule anti-cancer medicine Bestazomib (Bestazomib) and preparation method and application thereof” (SHANDONG HUBBLE KISEN BIOLOGICAL TECHNOLOGY CO., LTD., priority 2018, dated 2024):
Counter-ions that a name gives are not always drawn. Like-named read-outs stand apart in the source and are kept apart here.

Assays:
[1] = test system: human lung cancer A549 cell; test: MTT cell proliferation inhibition, A549; format: cell-based; details: average of three tests, read-out: IC50 tumor cell proliferation, A549
Text: (§1) The in vitro cell proliferation inhibitory activity test of the target compound adopts the MTT method. Human leukemia K562 cell line, human myeloma U266 cell line, human lung cancer A549 cell, human prostate cancer PC-3 cell line, human lymphoma U937 cell line, human liver cancer PLC/PRF/5 cell line, and human embryonic kidney cell HEK293, human normal hepatocyte HL7702 were taken, and all adopted routine culture. Logarithmic growth phase cells were used in the experiment. The cell suspensions of the above cells were taken and counted under an inverted microscope, and the medium was added to adjust the number of cells to 1×10^5/mL. A 96-well cell culture plate was taken for cell inoculation and drug experiment. The peripheral holes are not used (filled with sterile PBS). Blank control group, negative control group, positive control group and a drug experiment group were set up. The blank control group only added 150 L/Well of cell culture solution, the negative control group was inoculated with 100 µL/well of cell suspension and 50 µL/well of cell culture medium was added, the positive control group was inoculated with 100 µL/well of cell suspension and 50 µL/well of positive control drug solution was added, and the drug experiment group was inoculated with 100 L/Well of cell suspension and 50 µL/well of the test compound solution was added, the positive control group and the drug experimental group are respectively set up with 5 different final drug concentrations: […], 3 parallel re-wells for each drug concentration. After the drug was added, the 96-well cell culture plate was incubated at 37° C., 5% CO2 and saturated humidity for 48 hours, and 10 μL of 0.5% MTT staining solution was added to each well. […] Measure the OD value of each well with a microplate reader at a wavelength of 570 nm, and the cell growth inhibition rate is calculated according to the following formula: […]

[2] = test system: Human leukemia K562 cell line; test: MTT cell proliferation inhibition, K562; format: cell-based; details: average of three tests, read-out: IC50 tumor cell proliferation, K562
Text: as §1

Aminopeptidase N (APN) = Aminopeptidase N (APN) (Homo sapiens (Human), UniProt P15144); test: Inhibition of aminopeptidase N in vitro (L-leucyl p-nitroaniline substrate, absorbance 405 nm); format: biochemical; details: average of three tests
Sequence of Aminopeptidase N (APN) (P15144 whole entry, species assumed): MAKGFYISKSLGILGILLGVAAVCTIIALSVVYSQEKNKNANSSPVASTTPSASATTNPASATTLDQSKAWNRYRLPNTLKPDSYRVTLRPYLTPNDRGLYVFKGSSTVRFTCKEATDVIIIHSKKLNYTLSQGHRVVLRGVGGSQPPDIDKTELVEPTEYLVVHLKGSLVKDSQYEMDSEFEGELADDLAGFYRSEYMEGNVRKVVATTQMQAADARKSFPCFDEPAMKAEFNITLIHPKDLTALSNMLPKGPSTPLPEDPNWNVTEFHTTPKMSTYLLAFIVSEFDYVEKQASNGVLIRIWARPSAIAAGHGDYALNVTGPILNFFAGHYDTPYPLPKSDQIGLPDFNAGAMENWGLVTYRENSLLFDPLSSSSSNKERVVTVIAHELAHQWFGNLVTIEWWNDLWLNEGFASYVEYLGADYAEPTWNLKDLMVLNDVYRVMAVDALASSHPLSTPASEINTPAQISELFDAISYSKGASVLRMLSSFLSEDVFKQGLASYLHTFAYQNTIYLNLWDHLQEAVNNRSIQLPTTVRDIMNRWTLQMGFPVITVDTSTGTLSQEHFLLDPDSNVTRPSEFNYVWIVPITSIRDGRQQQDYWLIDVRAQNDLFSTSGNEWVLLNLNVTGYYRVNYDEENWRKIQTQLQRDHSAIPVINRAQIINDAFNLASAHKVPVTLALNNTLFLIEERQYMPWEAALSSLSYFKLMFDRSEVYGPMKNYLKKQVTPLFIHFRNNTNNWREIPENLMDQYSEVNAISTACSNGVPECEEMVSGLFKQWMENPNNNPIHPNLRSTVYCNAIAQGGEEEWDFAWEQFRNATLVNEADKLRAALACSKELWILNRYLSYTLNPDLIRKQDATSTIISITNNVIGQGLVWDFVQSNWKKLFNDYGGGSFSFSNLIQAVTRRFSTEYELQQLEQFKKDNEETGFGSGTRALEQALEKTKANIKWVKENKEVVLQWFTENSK
Text: Aminopeptidase N interacts with its commercial substrate L-leucyl p-nitroaniline (purchased from Sigma) to produce p-nitroaniline that is absorbed at 405 nm, and the concentration of p-nitroaniline is positively correlated to the enzyme activity. Measure the absorbance at 405 nm, and calculate the inhibition rate based on the absorbance of the inhibitor group and the control group, and calculate the IC50 value.

liver cancer H22 = test: Inhibition of liver cancer H22 lung metastasis in mice; format: in vivo, Kunming mice; details: intragastric administration, 2.69-4.48 mg/kg, two cycles; FIG. 1-4
Experimental: Take well-grown H22 mice with liver cancer, extract ascites, add sterile PBS solution to dilute to a concentration of 2.5×10^7/mL, and inoculate Kunming mice through tail vein with 200 μL each. The Kunming mice with overweight or underweight were excluded, randomly grouped, and the drug was administrated according to the dosing schedule.
The Kunming mice inoculated with H22 tumors were weighed and randomly divided into the following 6 groups, with 7 mice in each group. […] The mice were sacrificed 13 days after the inoculation. The calculation formula for the inhibition rate of lung metastasis of liver cancer was as follows: […]

[3] = test system: human prostate cancer PC-3 cell line; test: MTT cell proliferation inhibition, PC-3; format: cell-based; details: average of three tests, read-out: IC50 tumor cell proliferation, PC-3
Text: as §1

[4] = test system: human embryonic kidney cell HEK293; test: MTT proliferation inhibition on normal human cells, HEK293; format: cell-based; details: 48 hours, average of three tests
Text: (§2) The in vitro cell proliferation inhibitory activity test of the target compound adopts the MTT method. Human leukemia K562 cell line, human myeloma U266 cell line, human lung cancer A549 cell, human prostate cancer PC-3 cell line, human lymphoma U937 cell line, human liver cancer PLC/PRF/5 cell line, and human embryonic kidney cell HEK293, human normal hepatocyte HL7702 were taken, and all adopted routine culture. Logarithmic growth phase cells were used in the experiment. The cell suspensions of the above cells were taken and counted under an inverted microscope, and the medium was added to adjust the number of cells to 1×10^5/mL. A 96-well cell culture plate was taken for cell inoculation and drug experiment. The peripheral holes are not used (filled with sterile PBS). Blank control group, negative control group, positive control group and a drug experiment group were set up. […] Measure the OD value of each well with a microplate reader at a wavelength of 570 nm, and the cell growth inhibition rate is calculated according to the following formula: […]

[5] = test system: human myeloma U266 cell line; test: MTT cell proliferation inhibition, U266; format: cell-based; details: average of three tests, read-out: IC50 tumor cell proliferation, U266
Text: as §1

H22 liver ascites model = test: Survival test of H22 liver ascites model; format: in vivo, Kunming mice; details: equal molar amount with Ixazomib, FIG. 5-6
Experimental: Take well-grown H22 mice with liver cancer, extract ascites, add sterile PBS solution to dilute to a concentration of 2.5×10^7/mL, and inoculate the abdominal cavity of Kunming mice with 200 μL each. 5 days later, the animals were randomly grouped to administrate the drug. The day of inoculation was the first day. The body weight of the animals was recorded at the time of administration. The mice were randomly weighed and divided into the following 6 groups, with 10 mice in each group. […] The mice were administered according to the predetermined dosage, weighed and recorded respectively.
(§3) Use Origin7.5 software's one-way analysis of variance (One-Way ANOVA) function to calculate the overall difference; use t-test to compare each group with the blank group, and the life extension rate of each drug group was calculated by the following formula: […]

20S Proteasome = 20S Proteasome (Homo sapiens (Human), UniProt P28074); test: 20S proteasome detection kit, in vitro proteasome activity test (7-AMC fluorescence); format: biochemical; details: average of three tests
Text: The proteasome interacts with its substrate to produce the fluorescent substance 7-amino-4-methylcoumarin (7-AMC), and the concentration of 7-AMC is positively correlated with the activity of the proteasome. Measure the fluorescence intensity at 380/460 nm to calculate the inhibition rate based on the absorbance of the inhibitor group and the control group, and calculate the IC50 value.

[6] = test system: human lymphoma U937 cell line; test: MTT cell proliferation inhibition, U937; format: cell-based; details: average of three tests, read-out: IC50 tumor cell proliferation, U937
Text: as §1

B16F10 melanoma cells = test: Subcutaneous tumor survival test with B16F10 melanoma cells; format: in vivo, C57 mice
Experimental: The B16F10 melanoma cells in the logarithmic growth phase were taken, diluted with sterile PBS solution to a concentration of 1.5×10^7 cells/mL, and inoculated them subcutaneously in C57 mice with 150 μL each. 5 days later, the animals were randomly assigned to administer the drug. The day of inoculation was the first day. The body weight of the animals was recorded at the time of administration. The mice were randomly weighed and divided into the following 5 groups. […] The mice were administered according to the predetermined dosage, weighed and recorded respectively. Continuous observation until the death of the mouse was the end of observation, and the time of death of each mouse was recorded. The time of death of the mice in each group was counted.
as §3

[7] = test system: human liver cancer PLC/PRF/5 cell line; test: MTT cell proliferation inhibition, PLC/PRF/5; format: cell-based; details: average of three tests, read-out: IC50 tumor cell proliferation, PLC/PRF/5
Text: as §1

macrophages = test: Function test of clearance rate of charcoal particles (macrophage phagocytosis) in mice; format: in vivo, Kunming mice; details: for carbon clearance index (K) / phagocytosis index(α): mice, administered 2 weeks, mean ± standard deviation
Experimental: The mononuclear macrophage system is a very important defense system, which has a powerful ability to swallow and clear foreign particles. When a certain concentration of charcoal particles enters the body through the tail vein of the mice, they are carried to the liver, spleen, etc. by the flow of blood, and the macrophages of these organs can remove these charcoal particles. Within a certain concentration range, the rate of macrophages' elimination of charcoal particles is exponentially related to their dose, that is, the rate of phagocytosis is directly proportional to the concentration of charcoal particles in the blood. Therefore, taking the logarithm of the concentration of charcoal particles in the blood of mice as the ordinate and the time as the abscissa, the slope K represents the phagocytic rate of macrophages, but this is an uncorrected phagocytic index. In fact, its phagocytic activity is also related to the weight of the liver and spleen of mice. Different weights result in different K values. Therefore, it is generally expressed by the corrected phagocytic index α, which reflects the phagocytic activity per unit tissue weight. The calculation formulas of K and a are as follows: K=(log A1−log A2)/(t2−t1) α=(k^1/3×body weight)/(liver weight+spleen weight)
Materials: Kunming mice (female, 4-5 weeks old), Indian ink, normal saline, Na2CO3 solution (0.1% g/v), UV ultraviolet visible photometer.
Kunming mice were randomly divided into groups and administered for 2 weeks. One hour after the last administration, each mouse was injected intravenously with 0.1 mL/10 g of Indian ink 5 times diluted with normal saline, and started timing immediately after injection, 20 μL of blood samples were accurately collected from the orbital venous plexus and added into 2 mL of 0.1% Na2CO3 solution at 2 min (t1) and 10 min (t2) time points, respectively. After mixing evenly, use 0.1% Na2CO3 solution as the control group, each administration group was the experimental group, the absorbance at two time points of t1 and t2 were measured by ultraviolet spectrophotometer at 600 nm, and counted as A1 and A2. The clearance index is calculated by the calculation formula of the above K value. In addition, after the completion of blood collection, the mice were sacrificed by neck removal, and the liver and spleen were taken out and weighed. Calculate the phagocytic index α.

[8] = test system: human normal hepatocyte HL7702; test: MTT proliferation inhibition on normal human cells, HL7702; format: cell-based; details: L02, 48 hours, average of three tests
Text: as §2

[9] = Homo sapiens, PLC-PRF-5, 48 hours

| IC50 (Aminopeptidase N (APN)) [µM] | Structure (SMILES) | IC50 ([1]; Homo sapiens, A549, 48 hours) [µM] | IC50 ([2]; Homo sapiens, K562, 48 hours) [µM] | IC50 ([3]; Homo sapiens, PC-3, 48 hours) [µM] | IC50 [4] [µM] | IC50 ([5]; Homo sapiens, U-266, 48 hours) [µM] | IC50 (20S Proteasome) [µM] | IC50 ([6]; Homo sapiens, U-937, 48 hours) [µM] | IC50 [7, 9] [µM] | IC50 [8] [µM] | further results |
| --- | --- | --- | --- | --- | --- | --- | --- | --- | --- | --- | --- |
| 3.87 | CC(C)C[C@H](NC(=O)[C@@H](O)[C@H](N)Cc1ccccc1)B(O)O [Bestazomib, (R)-1-((2S,3R)-3-amino-2-hydroxy-4-phenylbutyramide)-3-methylbu tylboronic acid] | 98.4 ± 7.51 | 37.1 ± 2.28 | 65.7 ± 5.83 |  | 36.6 ± 2.07 | 10.2 | 15.5 ± 1.41 | 79.6 ± 6.32 |  |  |
| 18.2 | CC(C)C[C@H](NC(=O)CNC(=O)c1cc(Cl)ccc1Cl)B(O)O [Ixazomib, reference compound] |  |  |  | 17.1 ± 2.27 |  |  |  |  | 4.04 ± 0.63 |  |
|  | CC(C)C[C@H](NC(=O)[C@@H](O)[C@H](N)Cc1ccccc1)C(=O)O [Bestatin, reference compound] |  |  |  |  |  |  |  |  |  | IC50 ([1]; 48 hours): > 200 µM; IC50 ([2]; 48 hours): > 200 µM; IC50 ([3]; 48 hours): > 200 µM; IC50 ([5]; 48 hours): > 200 µM; IC50 ([6]; 48 hours): > 200 µM; IC50 ([7]; 48 hours): > 200 µM |

| Structure (SMILES) | IC50 (Aminopeptidase N (APN)) [µM] | IC50 ([1]; Homo sapiens, A549, 48 hours) [µM] | IC50 ([2]; Homo sapiens, K562, 48 hours) [µM] | IC50 ([3]; Homo sapiens, PC-3, 48 hours) [µM] | IC50 [4] [µM] | IC50 ([5]; Homo sapiens, U-266, 48 hours) [µM] | IC50 (20S Proteasome) [µM] | IC50 ([6]; Homo sapiens, U-937, 48 hours) [µM] | IC50 [7, 9] [µM] | IC50 [8] [µM] | further results |
| --- | --- | --- | --- | --- | --- | --- | --- | --- | --- | --- | --- |
| CC(C)C[C@H](NC(=O)[C@@H](O)[C@H](N)Cc1ccccc1)B1OC(=O)C(CC(=O)O)(CC(=O)O)O1 [Bestazomib Citrate, 2,2′-(2-((R)-1-((2S,3R)-3-amino-2-hydroxy-4-phenylbutanoylamino)-3-methylbutyl)-5-oxo-1,3,2-dioxaborolan-4,4-diyl) diacetic acid] | 2.14 | 63.6 ± 5.71 | 12.3 ± 1.46 | 45.6 ± 3.16 | 446 ± 19.4 | 21.7 ± 1.87 | 8.56 | 6.42 ± 0.64 | 54.7 ± 4.12 | 371 ± 70.9 | anti-tumor activity (H22 lung metastasis) (liver cancer H22): strong anti-tumor activity; survival time of mice (H22 liver ascites model): better than the prolonged time of the positive drug Ixazomib; survival time of B16F10 melanoma mice (B16F10 melanoma cells; 4, 6, 9 mg/kg/4d, FIG. 7): significantly prolong the survival time; survival time of mice compared with Ixazomib (B16F10 melanoma cells; medium-dose 6 mg/kg/4d and high-dose 9 mg/kg/4d vs Ixazomib 4 mg/kg/4d): better survival time of mice in the medium-dose and high-dose than the positive drug Ixazomib; phagocytic ability of macrophages in mice (macrophages; compared with positive control Ixazomib): significantly stronger than that of the positive control Ixazomib; carbon clearance index (K) (macrophages; high-dose 4.48 mg/kg/4 d po.): 0.063 ± 0.0002; phagocytosis index(α) (macrophages; high-dose 4.48 mg/kg/4 d po.): 21.628 ± 0.026; carbon clearance index (K) (macrophages; low-dose 2.69 mg/kg/4 d po.): 0.066 ± 0.0077; phagocytosis index(α) (macrophages; low-dose 2.69 mg/kg/4 d po.): 24.842 ± 0.969; carbon clearance index (K) (macrophages; medium-dose 3.59 mg/kg/4 d po.): 0.076 ± 0.0016; phagocytosis index(α) (macrophages; medium-dose 3.59 mg/kg/4 d po.): 21.620 ± 0.154 |
